# Results reported in patent US20260108483A1, “METHODS AND COMPOSITIONS FOR PREVENTING THE PROGRESSION OF DIABETIC RETINOPATHY AND RELATED CONDITIONS” (Opus Genetics, Inc., priority 2023, published 2026).
# Legend:
# Assay type in all cases: in vivo, human
# [1] = Clinical study safety: heart rate; settings: combined placebo + Compound 1 patients; for Mean Heart Rate: Baseline 76.7
# Source text: (§1) The study was configured as a placebo-controlled, double-masked, randomized, Phase 2 study in approximately 100 subjects with moderately severe to severe NPDR (diabetic retinopathy severity score [DRSS] Level 47 or 53, see FIG. 1) or mild PDR (DRSS Level 61), evaluating safety and efficacy following administration of Compound 1 twice daily for 24 weeks. The study was configured for a 1:1 randomization (placebo: Compound 1). Randomization was stratified by level of disease severity (NPDR or PDR). Subjects with mild PDR were capped at 20% for each arm. Efficacy evaluations at 12 and/or 24 weeks included DRSS, center-involved diabetic macular edema (DME), moderate PDR or PDR-related adverse events (AEs), best-corrected visual acuity (BCVA), and central subfield thickness (CST). Further experimental procedures and results are described below.
# (§2) At the Qualification/Baseline (Visit 2, Day 1): • The subject was randomized into the study. • Study medication was dispensed in accordance with the subjects randomized treatment arm. • Blood samples were drawn pre-dose for baseline levels and on Visit 9 (Week 24) for exploratory biomarker processing (i.e., cytokine and Ref-1 levels) to evaluate pharmacodynamic properties. • Subjects were instructed to administer their study medication (Compound 1 or placebo) each day, with 3 tablets every morning and 2 tablets every evening. Study medication was to be taken at approximately the same time each day and may be taken with or without food.
# (§3) At the Second Treatment Visit (Visit 6, Week 12±2 Days), subjects were to return to the site for the following series of safety and efficacy assessments: drug accountability, concomitant medications, urine pregnancy test (only for women of childbearing potential), HR/BP/vital signs, BCVA (ETDRS), DRSS, CST (SD-OCT), blood draw for PK, blood chemistry, blood hematology, biomicroscopy, ophthalmoscopy, IOP, eGFR, and AEs. Following the completion of the assessments, used medication kits were collected for accountability (by counting the number of unused tablets), and new study medication kits dispensed.
# (§4) At the Third Treatment Visit (Visit 9, Week 24±2 Days), subjects were to return to the site for the following series of safety and efficacy assessments: drug accountability, concomitant medications, urine pregnancy test (only for women of childbearing potential), physical examination, HR/BP/vital signs, BCVA (ETDRS), DRSS, CST (SD-OCT), blood chemistry, blood hematology, biomicroscopy, ophthalmoscopy, IOP, eGFR, AEs, and blood draw for exploratory biomarkers (ELISA, cytokine panel, comprehensive metabolic panel). Visit 9 (Week 24) was the end of the treatment period. Study medication was returned for accountability (by counting the number of unused tablets), and no further study medication dispensed.
# (§5) Safety endpoints include: • Incidence and severity of systemic and ocular AEs, • Change from baseline in body system assessments, • Change from baseline in vital sign measurements, • Change from baseline in clinical laboratory assay results (blood chemistry, hematology), • Change from baseline in intraocular pressure (IOP), • Change from baseline in slit-lamp examination parameters, • Change from baseline in dilated funduscopic examination parameters, • Percent of subjects with a decrease of ≥10 letters in BCVA compared to baseline at Week 12 and Week 24, • Percent of subjects progressing to center-involved DME (eligible for rescue treatment at Week 12 and Week 24), • Percent of subjects with a worsening in DRSS of ≥2 steps in the study eye at Week 12 and Week 24, • Percent of subjects developing anterior segment neovascularization at Week 12 and Week 24, • Percent of subjects rescued (intravitreal anti-VEGF injection, laser PRP, focal/grid laser treatment, or surgery [vitrectomy]) at the discretion of the Investigator at Week 12 and Week 24, and • Change from baseline in estimated glomerular filtration rate (eGFR) at Week 12 and Week 24. […]
# [2] = Clinical study safety: systolic blood pressure; settings: combined placebo + Compound 1 patients; for Mean Systolic Blood Pressure: Baseline 136.9
# Source text: as §1, §2, §3, §4, §5
# [3] = Clinical study safety: alanine aminotransferase in subjects' blood; settings: combined placebo + Compound 1 patients; for Mean Concentration of Alanine Aminotransferase in Subjects' Blood: Baseline 22.4
# Source text: as §1, §2, §3, §4, §5
smiles,measurement,setting,value
"CCCCCCCCC/C(=C\C1=C(C)C(=O)C(OC)=C(OC)C1=O)C(=O)O [Compound 1, (E)-2-((4,5-dimethoxy-2-methyl-3,6-dioxocyclohexa-1,4-dien-1-yl)methylene)undecanoic acid]",Mean Heart Rate,"[1]; Week 12, 62 subjects",76.3 beats/min
same,Mean Heart Rate,"[1]; Week 24, 27 subjects",80.7 beats/min
same,change in mean heart rate relative to Baseline,"[1]; week 12, 62 subjects",+0.9 beats/min
same,increase in mean heart rate relative to Baseline,"[1]; week 12, 62 subjects",1%
same,change in mean heart rate relative to Baseline,"[1]; week 24, 27 subjects",+4.3 beats/min
same,increase in mean heart rate relative to Baseline,"[1]; week 24, 27 subjects",6%
same,Mean Systolic Blood Pressure,"[2]; Week 12, 62 subjects",132 mmHg
same,Mean Systolic Blood Pressure,"[2]; Week 24, 27 subjects",139.7 mmHg
same,change in mean systolic blood pressure relative to Baseline,"[2]; week 12, 62 subjects",−4.7 mmHg
same,reduction in mean systolic blood pressure relative to Baseline,"[2]; week 12, 62 subjects",3%
same,change in mean systolic blood pressure relative to Baseline,"[2]; week 24, 27 subjects",−0.7 mmHg
same,reduction in mean systolic blood pressure relative to Baseline,"[2]; week 24, 27 subjects",1%
same,Mean Concentration of Alanine Aminotransferase in Subjects' Blood,"[3]; Week 12, 53 subjects",21.6 IU/L
same,Mean Concentration of Alanine Aminotransferase in Subjects' Blood,"[3]; Week 24, 24 subjects",20.4 IU/L
same,change in mean concentration of alanine aminotransferase relative to Baseline,"[3]; week 12, 50 subjects",−0.8 IU/L
same,reduction in mean concentration of alanine aminotransferase relative to Baseline,"[3]; week 12, 50 subjects",3.6%
same,change in mean concentration of alanine aminotransferase relative to Baseline,"[3]; week 24, 22 subjects",−2.1 IU/L
same,reduction in mean concentration of alanine aminotransferase relative to Baseline,"[3]; week 24, 22 subjects",9.4%
